Measured values reported in patent US20040152665A1, “Amelioration of decreased weight and growth by n-acylated glucosamines” (priority 2003, published 2004).

Experiments:
[1] = Experiment 1: weight gain of rats on restricted diet (20 g crushed chow/day) with supplement mixed in chow; assay type: in vivo, Sprague-Dawley male rats; settings: for average weights and rates of weight gain and growth: days 4 to 11, 20 g chow/day supplemented with 1.0 g GlcNBu or 0.75 g Glc (equimolar) per day per animal; for average weights and rates of weight gain and growth / average rates of weight gain and growth and body weights: compared to control; for average rates of weight gain and growth and body weights: days 12 to 18, 20 g chow/day supplemented with 1.5 g GlcNBu or 1.148 g Glc (equimolar) per day per animal; for stimulation of weight gain and growth (overall, Experiment 1): oral supplementation of restricted diet, 18 days
From the text: Twelve Sprague-Dawley male rats of body weights between 85 and 90 g each were placed in metabolic cages with access to food, each in an individual separate feeding compartment, so the animals could consume all their food without loss or spillage. Each morning 20 g of crushed commercial chow, which was less than the average determined amount of crushed chow these animals consume. ad lib, was placed in each individual feeding compartment. This procedure ensured that each animal would completely consume all of the crushed chow placed in each feeding compartment over the 24 hours starting with the said placement of the food. Supplementation of the crushed chow with the compounds to be tested was accomplished by mixing the compound with the chow. All test compounds were fully acceptable by the animals and the feeding compartments were emptied by the animals of the crushed chow and any test compound mixed therein, within 24 hr from the beginning of each feeding period. The animals were allowed free access to drinking water throughout the experimental period, which they consumed ad lib. The animals, obtained from a single commercial shipment, were randomly assigned to three experimental groups with four animals in each group. The experimental groups of animals are designated in FIG. 1 (A & B) as control; N-butyryl-D-glucosamine, shown as formula (II) and abbreviated as GlcNBu; and D-glucose abbreviated as Glc.
Starting at day 1 and continuing to day 12, inclusive, supplementations of the 20 g of crushed chow per day per animal were as following: Control group—no supplementation; GlcNBu group—supplementation with 1.0 g of GlcNBu per day per animal; Glc—supplementation with 0.75 g of Glc per day per animal, which corresponds to an equimolar amount of this GlcNBu supplementation.
On day 12 and continuing through day 18, the crushed chow (20 g given per day per animal) was further supplemented as follows: Control group—no supplementation; GlcNBu group—supplementation with 1.5 g of GlcNBu per day per animal; Glc —supplementation with 1.148 g of Glc per day per animal, which corresponds to an equimolar amount of this GlcNBu supplementation. It will be observed from FIG. 1 that there was no difference in the average rates of weight gain and growth or weights of the animals in the Glc and the control experimental groups of animals during the period of 12 to 18 days, inclusive.

[2] = test system: epiphyseal growth plate; test: Experiment 5: 35S[SO4] autoradiography of epiphyseal growth plates; assay type: in vivo, rats; settings: for mean density value of autoradiograms in the region of the epiphyseal growth plate (area under scan curve; black = 0, white = 255): 20 hours after 20 μCi 35S[SO4] i.p. on day 18 of Experiment 1, 12 autoradiograms per group, control 125.6; for incorporation of radioisotope into sulfated glycosaminoglycans of proteoglycans of the epiphyseal growth plates, compared to control: 20 hours after 35S[SO4] injection
Method: At the end of Experiment 1, described above, the rats were injected intra-peritonealy with 20 μCi of ^35S[SO4] in 1 ml of saline on day 18 and sacrificed 20 hours after the injection. The femurs were removed and the distal ends of the bones were processed histologically for autoradiography. Histological sections of the bones were used to make autoradiograms on X-ray film and were also processed for routine histology, including Toluidine blue staining for assessment of the proteoglycans in the growth plate. No histological abnormalities were detected in the histology sections obtained from any of the experimental groups of animals. The density of the autoradiograms in the region of the epiphyseal growth plate was evaluated and quantified utilizing a scanning microscope and the appropriate software. The software calculates the density of the autoradiogram by scoring a black region (maximally incorporated radioactivity) as 0 and a white region (no incorporated radioactivity) as 255. The areas under the curves of the scan of the autoradiogram (see FIG. 5) are then computed to give the stated values. The mean values of all of the autoradiograms (12 autoradiograms for each group of animals) were: Control, 125.6; Glc-supplemented, 127.1; GlcNBu—supplemented, 143.2. FIG. 5 illustrates scans of typical autoradiograms for the control, Glc-supplemented and GlcNBu-supplemented groups. Each scan is illustrated by a curve whose bases (at the top right and left of the figure) represent radioisotope incorporation at the periphery of the epiphyseal growth plate, while the trough of the curve (in the central part of the figure) represents radioisotope incorporation in the central part of the epiphyseal growth plate. It can be seen that for each of the experimental groups less radioactivity has been incorporated in the central part of the epiphyseal growth plates (the trough of the curve), compared to the periphery of the epiphyseal growth plate (the bases of the curve). The curves with the deepest, middle and least troughs represent autoradiograms from the epiphyses of animals fed with GlcNBu (dots-dashes), Glc (dots) and controls (solid line), respectively, as described in Experiment 1.

[3] = Acute toxicology studies in rats (feeding); assay type: in vivo; settings: for rate of weight gain and growth compared to control animals: fed in significant amounts (glucosamine) or equimolar amounts (glucose)
Method: Acute toxicology studies were carried out in order to evaluate the toxicity in rats of the aforesaid compounds.

[4] = Experiment 4: weight gain of rats fed ad libitum and gavaged with various amounts of supplement; assay type: in vivo, Sprague Dawley male rats; settings: for effect on weight gain: 2000 mg/kg by gavage
Method: (§1) For the data illustrated in FIG. 4, thirty Sprague Dawley male rats were adapted for one week so that each of their weights at the onset of treatment was approximately 185 grams. Each treatment group consisted of six animals, each administered one of the following treatments: water, 20 mg/kg GlcNBu, 200 mg/kg GlcNBu, 2000 mg/kg GlcNBu of 2000 mg/kg GlcN. All animals were fed Purina Rat Chow and water ad libitum. […] For nine days, the compounds were administered using the gavage technique; half doses being administered at 08:00 and at 17:00. Final urine samples were collected, histological examinations were performed to identify any overt signs of damage and then samples from each were harvested. Urinanalysis was performed using reagent strips (Multistix 8 SG from Bayer Inc. Healthcare Division, Etobicoke ON). […] No symptoms of neurological damage such as seizures or problems with vision were observed. All animals were well groomed and clean, and their snouts were normal.

[5] = Setnikar I et al. Arzneimittelforschung 1986; cited from earlier work
[6] = Experiment 2: weight gain of rats restricted to 10 g (later 15 g) chow/day, supplement dissolved in water then solid; assay type: in vivo, Sprague Dawley male rats
Method: The animals were maintained in metabolic cages for the duration of the study (FIG. 2). Parameters of behavior and physical appearance were observed daily for any indications of toxicological complications. Twelve Sprague Dawley male rats were restricted to 10 g of Purina Rat Chow per day for eight days. Treatment groups were provided with water containing 20 mg/mL GlcN or GlcNBu. Daily volumes of urine produced and water consumed were recorded. The mean water consumption (ml/day) for the three groups was: 22.80, 24.45 and 21.45 for the control, the GlcN-supplemented and the GlcNBu-supplemented groups, respectively. These values were not statistically significant. On day nine of the study, untreated water was provided and the mass of rat chow given daily was increased to 15 g, supplemented with an additional 1.0 g of solid treatment compound. On day 18, the animals were sacrificed by CO2 asphyxiation and their organs were inspected for damage.

[7] = Experiment 3: weight gain of rats restricted to 10 g chow/day and gavaged with supplement; assay type: in vivo, Sprague Dawley male rats; settings: 300 mg by gavage three times daily, by the eighth day of treatment
Method: The weights, and behavioral and physical parameters of 20 Sprague Dawley male rats, 5 per treatment group, were monitored over a ten-day period. The control group was given Purina Rat Chow ad libitum. The treatment groups were restricted to 10 g of rat chow per day and were supplemented with one of 300 mg GlcNBu, 300 mg GlcN or water, administered by gavage three times daily (FIG. 3). The animals were then sacrificed by CO2 asphyxiation and their organs checked for signs of damage.

[8] = Experiment 4: toxicity observations (behaviour, histological examination, urinanalysis); assay type: in vivo; settings: gavage nine days; GlcN 2000 mg/kg, GlcNBu 20, 200, 2000 mg/kg; data not shown
Method: as §1

SMILES | average weights and rates of weight gain and growth [1] | average rates of weight gain and growth and body weights [1] | stimulation of weight gain and growth (overall, Experiment 1) [1] | mean density value of autoradiograms in the region of the epiphyseal growth plate (area under scan curve; black = 0, white = 255) [2] | incorporation of radioisotope into sulfated glycosaminoglycans of proteoglycans of the epiphyseal growth plates, compared to control [2] | rate of weight gain and growth compared to control animals [3] | effect on weight gain ([4]; nine days) | concentrations of free glucosamine in the circulation after ingestion [5] | weight gained over the water controls ([6]; 20 mg/mL in water for 8 days, then 1.0 g solid with 15 g chow, maintained after five days of treatment) | growth compared to the GlcN group ([6]; starting at about day 10) | increase in weight compared to the same amount of GlcN [7] | increase in weights compared to water controls ([4]; 20 mg/kg by gavage, by day 3) | average weight gain compared to the GlcN group (2000 mg/kg) ([4]; 20 mg/kg by gavage, margin became insignificant by day seven) | increase in weights compared to water controls ([4]; 200 mg/kg by gavage, by day 5) | average weight gain compared to the GlcN group (2000 mg/kg) ([4]; 200 mg/kg by gavage, significantly heavier by day 4) | dose of maximal stimulatory effect on weight gain and growth ([4]; gavage, nine days, doses 20, 200, 2000 mg/kg) | histological examinations for signs of toxicity [8] | upper limit of feeding in terms of observed toxicity ([3]; oral feeding, rats)
O=C[C@H](O)[C@@H](O)[C@H](O)[C@H](O)CO [Glc, D-glucose, reference compound] | essentially identical | no difference | failed to stimulate growth or weight gain | 127.1 | (relatively small) stimulation of epiphyseal plate metabolism | no significant change |  |  |  |  |  |  |  |  |  |  |  | 
N[C@H]1C(O)O[C@H](CO)[C@@H](O)[C@@H]1O (stereo partly shown) [GlcN, glucosamine] |  |  |  |  |  | decrease in the rate of weight gain and growth | depression of weight gain | only very low or not detectable concentrations |  |  |  |  |  |  |  |  |  | 
CCCC(=O)N[C@H]1C(O)O[C@H](CO)[C@@H](O)[C@@H]1O (stereo partly drawn) [GlcNBu, N-butyryl-D-glucosamine] | significantly higher than those of the other groups | further increase in the rate and average body weights | stimulated the weight gain and growth | 143.2 | less incorporation of the radioisotope |  | lesser stimulations, which were, nevertheless, higher than the control |  | consistent statistical differences in weight gained over the water controls | grew somewhat more rapidly | significantly greater increase in weight | statistically significant from those of the water controls | significantly higher | statistically significant from those of the water controls | significantly higher | 200 mg/kg | failed to reveal any signs of toxicity | no upper limit
